# Results as given in patent publication US7723527B2 (Janssen Pharmaceutica NV, priority 2003, dated 2010).
# Biological target: T1, human histamine H4 receptor (Homo sapiens, UniProt Q9H3N8)
# T1 construct: expressed in transfected cells; host or cells: SK-N-MC cells or COS7 cells, transiently transfected; cell membranes used
# Assay: Binding assay on recombinant human histamine H4 receptor (3H-histamine displacement)
# Conditions: competition binding with 3H-histamine; membranes of SK-N-MC or COS7 cells expressing human H4 receptor; Cheng-Prusoff, KD 5 nM, ligand 5 nM
# Method in brief: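 Membranes from SK-N-MC or COS7 cells transiently transfected with human H4R, incubated with ^3H-histamine (5-70 nM) at room temperature for 45 min, nonspecific binding with 10,000 nM histamine. Filtration and scintillation counting; compound affinity from displacement of ^3H-ligand across varying concentrations.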
# T1 sequence (Q9H3N8 whole entry): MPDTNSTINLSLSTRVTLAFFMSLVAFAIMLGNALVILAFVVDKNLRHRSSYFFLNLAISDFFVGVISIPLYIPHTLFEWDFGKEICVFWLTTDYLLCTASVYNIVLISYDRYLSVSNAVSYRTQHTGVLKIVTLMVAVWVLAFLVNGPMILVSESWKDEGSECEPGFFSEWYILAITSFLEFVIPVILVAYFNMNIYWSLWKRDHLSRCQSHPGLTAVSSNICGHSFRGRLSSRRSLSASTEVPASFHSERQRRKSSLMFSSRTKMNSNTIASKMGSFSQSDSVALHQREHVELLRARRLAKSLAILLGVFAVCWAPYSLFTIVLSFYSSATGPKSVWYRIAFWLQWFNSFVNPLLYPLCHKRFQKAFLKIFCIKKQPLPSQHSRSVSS
row,SMILES,Ki
1,"Cc1c(F)ccc2[nH]c(-c3cnc(OCCCC4CCN(C)CC4)cc3CN3CCCC3)nc12 [Example 127, 5-Fluoro-4-methyl-2-{6-[3-(1-methyl-piperidin-4-yl)-propoxy]-4-pyrrolidin-1-ylmethyl-pyridin-3-yl}-1H-benzoimidazole]",0.773 µM
2,"Cc1cccc2[nH]c(-c3cc(OCCCCC4CCN(C)CC4)ncc3Br)nc12 [Example 128, 2-{5-Bromo-2-[4-(1-methyl-piperidin-4-yl)-butoxy]-pyridin-4-yl}-4-methyl-1H-benzoimidazole]",0.003 µM
3,"Cc1c(F)ccc2[nH]c(-c3cc(OCCCCC4CCN(C)CC4)ncc3Br)nc12 [Example 129, 2-{5-Bromo-2-[4-(1-methyl-piperidin-4-yl)-butoxy]-pyridin-4-yl}-5-fluoro-4-methyl-1H-benzoimidazole]",0.005 µM
4,"Cc1cc(Cl)cc2[nH]c(-c3cc(OCCCCC4CCN(C)CC4)ncc3Br)nc12 [Example 130, 2-{5-Bromo-2-[4-(1-methyl-piperidin-4-yl)-butoxy]-pyridin-4-yl}-6-chloro-4-methyl-1H-benzoimidazole]",0.005 µM
5,"Cc1cc(C)c2nc(-c3cc(OCCCCC4CCN(C)CC4)ncc3Br)[nH]c2c1 [Example 131, 2-{5-Bromo-2-[4-(1-methyl-piperidin-4-yl)-butoxy]-pyridin-4-yl}-4,6-dimethyl-1H-benzoimidazole]",0.003 µM
6,"Cc1ccc2[nH]c(-c3cc(OCCCCC4CCN(C)CC4)ncc3Br)nc2c1C [Example 132, 2-{5-Bromo-2-[4-(1-methyl-piperidin-4-yl)-butoxy]-pyridin-4-yl}-4,5-dimethyl-1H-benzoimidazole]",0.005 µM
7,"Cc1c(Cl)ccc2[nH]c(-c3cc(OCCCCC4CCN(C)CC4)ncc3Br)nc12 [Example 133, 2-{5-Bromo-2-[4-(1-methyl-piperidin-4-yl)-butoxy]-pyridin-4-yl}-5-chloro-4-methyl-1H-benzoimidazole]",0.012 µM
8,"CN1CCC(CCCCOc2cc(-c3nc4cc(C(C)(C)C)ccc4[nH]3)c(Br)cn2)CC1 [Example 134, 2-{5-Bromo-2-[4-(1-methyl-piperidin-4-yl)-butoxy]-pyridin-4-yl}-5-tert-butyl-1H-benzoimidazole]",0.117 µM
9,"CN1CCC(CCCCOc2cc(-c3nc4cc(C(C)(C)C)ccc4[nH]3)ccn2)CC1 [Example 135, 5-tert-Butyl-2-{2-[4-(1-methyl-piperidin-4-yl)-butoxy]-pyridin-4-yl}-1H-benzoimidazole]",0.047 µM
10,"Cc1c(F)ccc2[nH]c(-c3cc(OCCCCC4CCN(C)CC4)ncc3Cl)nc12 [Example 136, 2-{5-Chloro-2-[4-(1-methyl-piperidin-4-yl)-butoxy]-pyridin-4-yl}-5-fluoro-4-methyl-1H-benzoimidazole]",0.001 µM
11,"Cc1ccc2[nH]c(-c3cc(OCCCCC4CCN(C)CC4)ncc3Cl)nc2c1C [Example 137, 2-{5-Chloro-2-[4-(1-methyl-piperidin-4-yl)-butoxy]-pyridin-4-yl}-4,5-dimethyl-1H-benzoimidazole]",0.003 µM
12,"Cc1cc(C)c2nc(-c3ccnc(OCCCCN4CCN(C)CC4)c3)[nH]c2c1 [Example 138, 4,6-Dimethyl-2-{2-[4-(4-methyl-piperazin-1-yl)-butoxy]-pyridin-4-yl}-1H-benzoimidazole]",0.046 µM
13,"Cc1cccc2[nH]c(-c3ccnc(OCCCCN4CCN(C)CC4)c3)nc12 [Example 139, 4-Methyl-2-{2-[4-(4-methyl-piperazin-1-yl)-butoxy]-pyridin-4-yl}-1H-benzoimidazole]",0.069 µM
14,"Cc1ccc2[nH]c(-c3ccnc(OCCCCN4CCN(C)CC4)c3)nc2c1C [Example 140, 4,5-Dimethyl-2-{2-[4-(4-methyl-piperazin-1-yl)-butoxy]-pyridin-4-yl}-1H-benzoimidazole]",0.144 µM
15,"Cc1c(F)ccc2[nH]c(-c3ccnc(OCCCCN4CCN(C)CC4)c3)nc12 [Example 141, 5-Fluoro-4-methyl-2-{2-[4-(4-methyl-piperazin-1-yl)-butoxy]-pyridin-4-yl}-1H-benzoimidazole]",0.06 µM
16,"Cc1cc(Cl)cc2[nH]c(-c3ccnc(OCCCCN4CCN(C)CC4)c3)nc12 [Example 142, 6-Chloro-4-methyl-2-{2-[4-(4-methyl-piperazin-1-yl)-butoxy]-pyridin-4-yl}-1H-benzoimidazole]",0.073 µM
17,"Cc1c(F)ccc2[nH]c(-c3ccnc(OCCCCN4CCCN(C)CC4)c3)nc12 [Example 143, 5-Fluoro-4-methyl-2-{2-[4-(4-methyl-[1,4]diazepan-1-yl)-butoxy]-pyridin-4-yl}-1H-benzoimidazole]",0.006 µM
18,"Cc1ccc2[nH]c(-c3ccnc(OCCCCN4CCCN(C)CC4)c3)nc2c1C [Example 144, 4,5-Dimethyl-2-{2-[4-(4-methyl-[1,4]diazepan-1-yl)-butoxy]-pyridin-4-yl}-1H-benzoimidazole]",0.008 µM
19,"Cc1cc(C)c2nc(-c3ccnc(OCCCCC4CCN(C)CC4)c3)[nH]c2c1 [Example 145, 4,6-Dimethyl-2-{2-[4-(1-methyl-piperidin-4-yl)-butoxy]-pyridin-4-yl}-1H-benzoimidazole]",0.003 µM

row,SMILES,Ki
1,"Cc1cccc2[nH]c(-c3ccnc(OCCCCC4CCN(C)CC4)c3)nc12 [Example 146, 4-Methyl-2-{2-[4-(1-methyl-piperidin-4-yl)-butoxy]-pyridin-4-yl}-1H-benzoimidazole]",0.005 µM
2,"Cc1c(F)ccc2[nH]c(-c3ccnc(OCCCCC4CCN(C)CC4)c3)nc12 [Example 147, 5-Fluoro-4-methyl-2-{2-[4-(1-methyl-piperidin-4-yl)-butoxy]-pyridin-4-yl}-1H-benzoimidazole]",0.008 µM
3,"CN1CCC(CCCCOc2cc(-c3nc4c(Cl)cccc4[nH]3)ccn2)CC1 [Example 148, 4-Chloro-2-{2-[4-(1-methyl-piperidin-4-yl)-butoxy]-pyridin-4-yl}-1H-benzoimidazole]",0.017 µM
4,"Cc1ccc2[nH]c(-c3ccnc(OCCCCC4CCN(C)CC4)c3)nc2c1C [Example 149, 4,5-Dimethyl-2-{2-[4-(1-methyl-piperidin-4-yl)-butoxy]-pyridin-4-yl}-1H-benzoimidazole]",0.004 µM
5,"Cc1cc(Cl)cc2[nH]c(-c3ccnc(OCCCCC4CCN(C)CC4)c3)nc12 [Example 150, 6-Chloro-4-methyl-2-{2-[4-(1-methyl-piperidin-4-yl)-butoxy]-pyridin-4-yl}-1H-benzoimidazole]",0.019 µM
6,"Cc1c(Cl)ccc2[nH]c(-c3ccnc(OCCCCC4CCN(C)CC4)c3)nc12 [Example 151, 5-Chloro-4-methyl-2-{2-[4-(1-methyl-piperidin-4-yl)-butoxy]-pyridin-4-yl}-1H-benzoimidazole]",0.021 µM
7,"CC(C)(C)c1ccc2[nH]c(-c3ccnc(OCCCCC4CCNCC4)c3)nc2c1 [Example 152, 5-tert-Butyl-2-[2-(4-piperidin-4-yl-butoxy)-pyridin-4-yl]-1H-benzoimidazole]",0.117 µM
8,"Cc1cc(C)c2nc(-c3ccnc(OCCCCC4CCNCC4)c3)[nH]c2c1 [Example 153, 4,6-Dimethyl-2-[2-(4-piperidin-4-yl-butoxy)-pyridin-4-yl]-1H-benzoimidazole]",0.179 µM
9,"CCN1CCC(CCCCOc2cc(-c3nc4c(C)c(C)ccc4[nH]3)ccn2)CC1 [Example 154, 2-{2-[4-(1-Ethyl-piperidin-4-yl)-butoxy]-pyridin-4-yl}-4,5-dimethyl-1H-benzoimidazole]",0.111 µM
10,"Cc1cc(C)c2nc(-c3ccnc(OCCCCC4CCN(C)CC4)c3C)[nH]c2c1 [Example 155, 4,6-Dimethyl-2-{3-methyl-2-[4-(1-methyl-piperidin-4-yl)-butoxy]-pyridin-4-yl}-1H-benzoimidazole]",0.013 µM
11,"Cc1c(-c2nc3c(C)cccc3[nH]2)ccnc1OCCCCC1CCN(C)CC1 [Example 156, 4-Methyl-2-{3-methyl-2-[4-(1-methyl-piperidin-4-yl)-butoxy]-pyridin-4-yl}-1H-benzoimidazole]",0.02 µM
12,"Cc1c(-c2nc3c(C)cc(Cl)cc3[nH]2)ccnc1OCCCCC1CCN(C)CC1 [Example 157, 6-Chloro-4-methyl-2-{3-methyl-2-[4-(1-methyl-piperidin-4-yl)-butoxy]-pyridin-4-yl}-1H-benzoimidazole]",0.028 µM
13,"Cc1cccc2[nH]c(-c3ccnc(OCCCCC4CCN(C)CC4)c3Cl)nc12 [Example 158, 2-{3-Chloro-2-[4-(1-methyl-piperidin-4-yl)-butoxy]-pyridin-4-yl}-4-methyl-1H-benzoimidazole]",0.021 µM
14,"Cc1ccc2[nH]c(-c3ccnc(OCCCCC4CCN(C)CC4)c3Cl)nc2c1C [Example 159, 2-{3-Chloro-2-[4-(1-methyl-piperidin-4-yl)-butoxy]-pyridin-4-yl}-4,5-dimethyl-1H-benzoimidazole]",0.019 µM
15,"CN1CCC(CCCCOc2nccc(-c3nc4c(Cl)cccc4[nH]3)c2Cl)CC1 [Example 160, 4-Chloro-2-{3-chloro-2-[4-(1-methyl-piperidin-4-yl)-butoxy]-pyridin-4-yl}-1H-benzoimidazole]",0.053 µM
16,"Cc1c(F)ccc2[nH]c(-c3ccnc(OCCCCC4CCN(C)CC4)c3Cl)nc12 [Example 161, 2-{3-Chloro-2-[4-(1-methyl-piperidin-4-yl)-butoxy]-pyridin-4-yl}-5-fluoro-4-methyl-1H-benzoimidazole]",0.02 µM
17,"Cc1cc(C)c2nc(-c3ccnc(OCCCCC4CCN(C)CC4)c3Cl)[nH]c2c1 [Example 162, 2-{3-Chloro-2-[4-(1-methyl-piperidin-4-yl)-butoxy]-pyridin-4-yl}-4,6-dimethyl-1H-benzoimidazole]",0.015 µM
18,"Cc1cc(Cl)cc2[nH]c(-c3ccnc(OCCCCC4CCN(C)CC4)c3Cl)nc12 [Example 163, 6-Chloro-2-{3-chloro-2-[4-(1-methyl-piperidin-4-yl)-butoxy]-pyridin-4-yl}-4-methyl-1H-benzoimidazole]",0.012 µM
19,"Cc1c(Cl)ccc2[nH]c(-c3ccnc(OCCCCC4CCN(C)CC4)c3Cl)nc12 [Example 164, 5-Chloro-2-{3-chloro-2-[4-(1-methyl-piperidin-4-yl)-butoxy]-pyridin-4-yl}-4-methyl-1H-benzoimidazole]",0.007 µM
